Assay results published in US20240009304A1, “USE OF NGF ANTIBODY IN CIPN PAIN” (Dartsbio Pharmaceuticals Ltd., priority 2020, published 2024).
Values joined by “and” are separate entries in the source; they are usually repeats but may differ in a detail not shown here. Equal values may be shown once.

Legend:
Assay type in all cases: in vivo
[1] = system: paclitaxel-induced neuropathic pain model in SD rats; assay: acetone cold allodynia, paclitaxel-induced neuropathic pain model; details: s.c.
Description: (§1) All female SD rats were measured on day −5 (D-5) and day −4 (D-4) for basal values of von Frey mechanical allodynia and acetone cold allodynia (the day on formally establishing the model with paclitaxel administration was recorded as DO). SD rats were randomly divided into 5 groups according to body weight, which were blank control group, vehicle control (Vehicle control), s.c., D-3/D3/D9 group, DS002 0.1 mg/kg, s.c., D-3/D3/D9 group, DS002 0.5 mg/kg, s.c., D-3/D3/D9 group, DS002 2.5 mg/kg, s.c., D-3/D3/D9 group, respectively. Except for the blank control group, the other groups of animals were injected intraperitoneally with a chemotherapeutic agent solution on DO, D2, D4 and D6, respectively, to establish a chemotherapeutic agent-induced neuropathic pain model in SD rats. Wherein, von Frey is a stimulating material used in the measurement method of mechanical stimulation pain threshold; acetone is a stimulating substance used in the measurement method of cold pain threshold.
(§2) Except for the blank control group, the other four groups were administered subcutaneously with DS002 on D-3, D3 and D9, respectively, and the von Frey echanical allodynia and acetone cold allodynia were measured on D7, D14 and D8, D15, respectively. The mechanical paw withdrawal threshold and the score and frequency of acetone-induced foot withdrawal behavior at the corresponding time point were recorded (for testing and calculation methods, see Yoon et al., pain, 59(3), 369-376. & Flatters et al., pain, 2004, 109 (1-2):150-161).
The above experimental method was used, except for the blank control group, the other groups of animals were injected intraperitoneally with a chemotherapeutic agent solution (4 mg/kg) on DO, D2, D4 and D6, respectively, to establish a paclitaxel-induced neuropathic pain model in SD rats, namely the CIPN pain model.

[2] = system: vincristine-induced neuropathic pain model in SD rats; assay: von Frey mechanical allodynia, vincristine-induced neuropathic pain model; details: for Mean value of mechanical paw withdrawal threshold: s.c.
Description: as §1, §2
With reference to the above-mentioned experimental method and Example 1, except for the blank control group, the other groups of animals were injected intraperitoneally with a vincristine solution (0.1 mg/kg) from DO to D9, respectively, to establish a vincristine-induced neuropathic pain model in SD rats, namely, the CIPN pain model.

[3] = system: cisplatin-induced neuropathic pain model in SD rats; assay: acetone cold allodynia, cisplatin-induced neuropathic pain model; details: for Mean value of response frequency of cold allodynia / Mean value of acetone-induced foot withdrawal behavior total score: s.c.
Description: as §2
With reference to the above-mentioned experimental method and Example 1, except for the blank control group, the animals of other groups were injected with a cisplatin solution (4 mg/kg) in the tail veins on DO and D6, respectively, to establish a cisplatin-induced neuropathic pain model in SD rats, namely the CIPN pain model.
The basal values of the mechanical allodynia and cold allodynia were measured on day 5 (D-5) and day 4 (D-4) before modeling. On day 3 (D-3), the normal rats were divided into 4 groups by random block method and administered according to their body weight. The average weight of animals in each group after grouping was about 250 g. As for the animals of blank control group, vehicle control, s.c., D-3/D3/D9/D16 group, test sample DS002, 0.02 mg/kg, s.c., D-3/D3/D9/D16 group and test sample DS002, 0.5 mg/kg, s.c., D-3/D3/D9/D16 group, the basal values of mechanical paw withdrawal threshold were 26.00±0.00 g, 23.95±1.63 g, 23.50±1.68 g and 22.77±1.71 g, respectively; the basal values of acetone-induced foot withdrawal behavior total score were 0.50±0.34, 0.55±0.31, 0.27±0.19 and 0.55±0.28, respectively; the basal values of the response frequency were 6.00±4.27%, 7.27±4.07%, 3.64±2.44% and […], respectively.

[4] = 0.1 mg/kg, D-3/D3/D9, D-4 basal value before administration
[5] = 0.5 mg/kg, D-3/D3/D9, D-4 basal value before administration
[6] = 2.5 mg/kg, D-3/D3/D9, D-4 basal value before administration
[7] = 0.5 mg/kg, D-3/D3/D9/D16, D22, listed as D5002

## DS002: humanized recombinant monoclonal antibody targeting nerve growth factor, IgG1 subtype, kappa light chain; heavy/light chain SEQ ID NO:3 and 4
[1]; 0.1 mg/kg, D-3/D3/D9, D15
  Mean value of acetone-induced foot withdrawal response score: 1.80
  Mean value of response frequency of cold allodynia: 33.40%
[1]; [4]
  Mean value of acetone-induced foot withdrawal response score: 0.60
  Mean value of response frequency of cold allodynia: 13.40%
[1]; 0.5 mg/kg, D-3/D3/D9, D8
  Mean value of acetone-induced foot withdrawal response score: 2.50
  Mean value of response frequency of cold allodynia: 50.10%
[1]; 0.5 mg/kg, D-3/D3/D9, D15
  Mean value of acetone-induced foot withdrawal response score: 1.00
  Mean value of response frequency of cold allodynia: 23.20%
[1]; [5]
  Mean value of acetone-induced foot withdrawal response score: 0.50
  Mean value of response frequency of cold allodynia: 13.30%
[1]; 2.5 mg/kg, D-3/D3/D9, D8
  Mean value of acetone-induced foot withdrawal response score: 3.30
  Mean value of response frequency of cold allodynia: 70.0%
[1]; 2.5 mg/kg, D-3/D3/D9, D15
  Mean value of acetone-induced foot withdrawal response score: 0.70
  Mean value of response frequency of cold allodynia: 19.90%
[1]; [6]
  Mean value of acetone-induced foot withdrawal response score: 0.90
  Mean value of response frequency of cold allodynia: 19.90%
[2]; 0.1 mg/kg, D-3/D3/D9, D7
  Mean value of mechanical paw withdrawal threshold: 7.02 ± 1.05 g
[2]; 0.1 mg/kg, D-3/D3/D9, D14
  Mean value of mechanical paw withdrawal threshold: 9.76 ± 1.10 g
[2]; 0.1 mg/kg, D-3/D3/D9, D-5 basal value before administration
  Mean value of mechanical paw withdrawal threshold: 15.00 ± 0.00 g
[2]; 0.5 mg/kg, D-3/D3/D9, D7
  Mean value of mechanical paw withdrawal threshold: 8.20 ± 1.78 g
[2]; 0.5 mg/kg, D-3/D3/D9, D14
  Mean value of mechanical paw withdrawal threshold: 11.00 ± 0.94 g
[2]; 0.5 mg/kg, D-3/D3/D9, D-5 basal value before administration
  Mean value of mechanical paw withdrawal threshold: 15.00 ± 0.00 g
[2]; 2.5 mg/kg, D-3/D3/D9, D7
  Mean value of mechanical paw withdrawal threshold: 8.43 ± 0.92 g
[2]; 2.5 mg/kg, D-3/D3/D9, D14
  Mean value of mechanical paw withdrawal threshold: 13.31 ± 0.76 g
[2]; 2.5 mg/kg, D-3/D3/D9, D-5 basal value before administration
  Mean value of mechanical paw withdrawal threshold: 14.16 ± 0.60 g
[2]; summary in words
  mechanical paw withdrawal threshold of rats compared with the Vehicle control: significantly increased
[3]; 0.02 mg/kg, D-3/D3/D9/D16, D8
  Mean value of response frequency of cold allodynia: 7.27±4.07% and 7.27%
[3]; 0.02 mg/kg, D-3/D3/D9/D16, D15
  Mean value of response frequency of cold allodynia: 16.36±5.92% and 16.36%
[3]; 0.02 mg/kg, D-3/D3/D9/D16, D22
  Mean value of response frequency of cold allodynia: 9.09±4.15% and 9.09%
[3]; 0.02 mg/kg, D-3/D3/D9/D16, D-4 basal value before administration
  Mean value of response frequency of cold allodynia: 3.64±2.44% and 3.64%
[3]; 0.5 mg/kg, D-3/D3/D9/D16, D8
  Mean value of response frequency of cold allodynia: 7.27±4.07% and 7.27%
[3]; 0.5 mg/kg, D-3/D3/D9/D16, D15
  Mean value of response frequency of cold allodynia: 7.27±4.07% and 7.27%
[3]; 0.5 mg/kg, D-3/D3/D9/D16, D22
  Mean value of acetone-induced foot withdrawal behavior total score: 0.73
  Mean value of response frequency of cold allodynia: 10.91%
[3]; [7]
  Mean value of acetone-induced foot withdrawal behavior total score: 0.73±0.30
  Mean value of response frequency of cold allodynia: 10.91±4.15%
[3]; 0.5 mg/kg, D-3/D3/D9/D16, D-4 basal value before administration
  Mean value of response frequency of cold allodynia: 5.45±2.82% and 5.45%
[3]; summary in words
  cold pain threshold of the rats compared with the vehicle control: not significantly improved
